Experimental data: US20240197596A1, “COMPOUNDS USEFUL AS HAIR DYES” (National University of Singapore, priority 2021, published 2024)
≈ marks a conversion by molar mass, not a printed value. Entries after “also recorded” stand apart in the source; their conditions may differ. Read-outs that look alike come from different tables or passages of the source.

Key:
[1] = Thermodynamic solubility assay (modified shake flask, LC-MS/MS); conditions: Milli-Q water, pH=7, 25° C., 24 h, 3 separate determinations; for solubility at 24 h: 25 °C, pH 7, water, thermodynamic from solid
Procedure: The aqueous solubilities (pH=7) of these compounds were measured using the modified shake flask method and LC-MS/MS. Each hair dye was added into a 2 mL glass vial containing Milli-Q water (1 mL) to form the precipitates at 25° C. Then the mixture was subjected to a solubility-equilibrium stage. The vials were shaken at 300 rpm at 25° C. for 24 h. The precipitate was separated by centrifugation at 23,000 g for 20 min. Subsequently, 0.5 mL of supernatant was transferred into a 1 mL Eppendorf tube, and it was centrifuged again as mentioned above. The supernatant was then used for LC-MS/MS analysis.
The mass spectrometric analysis was performed by use of a AB SCIEX QTRAP 5500 tandem mass spectrometry (MS/MS) system (AB SCIEX, Framingham, MA, USA) operating in triple quadrupole positive mode (ESI+) equipped with an AB Sciex Turbo Ion Spray interface. Acquisition and analysis of data were performed with Analyst software ver. 1.4.2 (Applied Biosystems) which performed all chromatographic peak integration. For each hair dye, a standard curve consisting of four concentrations was established.
Solvent A was composed of 0.1% [v/v] formic acid in Milli-Q water while solvent B was composed of 0.1% [v/v] formic acid in acetonitrile. A mobile phase gradient pumped at 0.6 mL/min was used to elute the hair dyes from the column. The column was equilibrated for 1 min resulting in a total run time of 5 min. The injection volume was 5.0 μL for all derivatives. To prevent compound accumulation on the needle, 50% methanol in ACN was used as needle wash for 30 s per sample.

THP-1 cells = assay: h-CLAT assay on THP-1 cells: markers against OECD cut-off, prediction, cell viability; assay type: cell-based, human; conditions: for CD54 and CD86 marker expression against OECD cut-off: 8 doses based on CV75, 24 h
Procedure: The assay was conducted as per the literature (Toxicol In Vitro, 2006, 20, 767-73). THP-1 cells were cultured in 24-well plates (1×10^6 cells/1 mL/well) with various concentrations of each chemical (N1-N13), +ve control (DNCB), −ve control for 24 h.
THP-1 cells were cultured in 24-well plates (1×10^6 cells/mL/well) and treated with recommended concentrations of each chemical (N1-N13), positive control (DNCB) or negative control (SLS) for 24 h. THP-1 cells were cultured and treated with 8 doses of N1-N13 based on the CV75 namely, 1.2×CV75, 1×CV75, 1/1.2×CV75, 1/1.2^2×CV75, 1/1.23×CV75, 1/1.24×CV75, 1/1.2^5×CV75 and 1/1.2^6×CV75. After 24 h, cells were transferred to 1.5 mL of microtubes and centrifuged at 450 g, 5 min, 4° C. Supernatant was discarded and cells were washed with 1 mL of FACS buffer (PBS+FBS+HEPES). The cells were centrifuged at 450 g, 5 min, 4° C. 50 μL of Fc block (0.01% of Globlins Cohn fraction II, III) was added and incubated for 10 min at 4° C. The cells were stained with 20 μL APC CD54 (Mouse IgG1, K, BD Biosciences, San Diego, CA, USA), 20 μL FITC CD86 (Mouse IgG1, K, BD Biosciences, San Diego, CA, USA) or their respective isotype controls and incubated for 15 min at room temperature in dark. After incubation, the antibodies were diluted with 200 μl FACS buffer. The cells were washed with 1 mL FACS buffer twice. Further, 200 μL Propidium iodide (PI, 0.625 μg/mL) prepared in FACS buffer was added before the flow cytometry analysis. Flow cytometric analysis was performed with BD LSR Fortessa™ (Becton Dickinson, San Jose, CA, USA) In total, 10,000 living cells were analysed, and data were processed using Flowjo software (v10.6, Ashland, OR, USA). The test concentration providing a cell viability of 75% (CV75) was derived from the dose response curve and was calculated by log-linear interpolation.
Geometric mean fluorescence intensity (MFI) was measured for CD54^+ and CD86^+ cells separately and percentage relative fluorescence intensity (% RFI), reflective of CD86 and CD54 relative expression was calculated as described below. RFI was not calculated if cell viability fell below 50%.
All chemicals were tested in three independent experiments. If in two of three independent experiments at any dose exceeded 150% RFI for CD86, or 200% RFI for CD54, the chemicals could be identified as a sensitizer. Otherwise it is identified as a non-sensitizer.

IL-1α = IL-1α release assay (ELISA) in THP-1 cells; assay type: cell-based, human; conditions: 24 h; for release of IL-1α: CV75 dose
Procedure: (§1) CV75 values (concentration showing 75% of THP-1 cell survival) were determined as per the procedure described above in section A of this method. The IL-8 and IL-1α release assay was performed as described in Toxicol In Vitro. 2003, 17(3), 311-321. A Chemokine immunosorbent assay Bio-legend ELISA Max kit was used to quantify the levels of available IL-8 and IL-1α protein. The supernatant media of untreated THP-1 cells was treated with standards, test samples N1-N13 and DMSO in 96 well plate and then was recovered after 24 h of culture. IL-8 and IL-1α was measured by ELISA in 96-well microtiter plates according to the manufacturer protocol (Biolegend, ELISA MAX™, Singapore).

IL-8 = IL-8 release assay (ELISA) in THP-1 cells; assay type: cell-based, human; conditions: CV75 dose, 24 h
Procedure: as §1

[2] = system: cysteine heptapeptide (Ac-RFAACAA-COOH) and lysine heptapeptide (Ac-RFAAKAA-COOH); assay: Direct Peptide Reactivity Assay (DPRA); assay type: biochemical; conditions: from mean peptide depletion
Procedure: The assay was conducted on N1-N13 in triplicates with the respective solvent used to prepare compound stock solutions as control. A stock concentration of 20 mM was prepared instead of the recommended 100 mM by OECD due to scarcity of compounds. The various constituents of the incubation mixture were freshly prepared to prevent stability issues that could cause variations in results. An incubation mixture with the recommended peptide to test compound ratios of 1:10 for cysteine heptapeptide and 1:50 for lysine heptapeptide (OECD. Test No. 442C: In Chemico Skin Sensitisation 2020) was prepared then incubated at 25° C. for 24 h in a shaking incubator (Toxicol Sci. 2012; 129(2):421-31).
At 24 h, the incubation mixture was quenched with 75 μL of 95% ACN/H2O containing 200 μM Leucine Enkephalin (Internal Standard). For cysteine DPRA, 100 μL of quenched mixture was spiked into 90 μL of 2% ACN/H2O and 10 μL of freshly prepared 0.016 mM 1,4-Dithiothreitol (DTT) solution. DTT maintains the integrity of thiol groups by preventing the dimerization of thiol groups and degradation of di-adducts to mono-adducts. This second mixture was then incubated at 40° C. for 30 min in a shaking incubator. For lysine DPRA, 10 μL of quenched mixture was spiked into 190 μL of 2% ACN/H2O. All 200 μL of mixtures were transferred into a 96-well plate and sent for analysis with Liquid Chromatography-Tandem Mass Spectrometry (LC-MS/MS).

Structure (SMILES)	solubility at 24 h [1]	Solubility [1]	CD54 and CD86 marker expression against OECD cut-off (THP-1 cells)	marker induction, times lower than DNCB (THP-1 cells)	IL-1α release, times lower than PPD (IL-1α)	release of IL-1α (IL-1α)	release of IL-8 (IL-8)	marker induction, times lower than DNCB (THP-1 cells; human, 24 h)	sensitizing potential (DPRA) [2]
COC(COc1cc(N)ccc1N)OC [Compound N1, 2-(2,2-dimethoxyethoxy)benzene-1,4-diamine]	78 to 100 mg/mL (≈ 367 to 471 mM)	85 + 4.0 mg/ml	did not express the markers at any tested dose level						
COCOc1cc(N)ccc1N [Compound N2, 2-(methoxymethoxy)benzene-1,4-diamine]	78 to 100 mg/mL (≈ 464 to 595 mM)	90 + 2.6 mg/ml		3					
CCOCOc1cc(N)ccc1N [Compound N3, 2-(ethoxymethoxy)benzene-1,4-diamine]	65 to 72 mg/mL (≈ 357 to 395 mM)	65 + 3.6 mg/ml		3					
Nc1ccc(N)c(OCC2CO2)c1 (stereo not drawn) [Compound N4, 2-(oxiran-2-ylmethoxy)benzene-1,4-diamine]	65 to 72 mg/mL (≈ 361 to 400 mM)	70 + 4.6 mg/ml	did not express the markers at any tested dose level		7-8	slight release			
COCCOCCOc1cc(N)ccc1N [Compound N5, 2-[2-(2-methoxyethoxy)ethoxy]benzene-1,4-diamine]	78 to 100 mg/mL (≈ 345 to 442 mM)	85 + 2.5 mg/ml	failed to induce marker expression above the recommended % RFI cut-off			slight elevation; also recorded: marginal release	slight elevation; also recorded: marginal release		
N#CCOc1cc(N)ccc1N [Compound N6, 2-(2,5-diaminophenoxy)acetonitrile]						did not release significant amounts	did not release significant amounts	3	
COCCOc1cc(N)ccc1N [Compound N7, 2-(2-methoxyethoxy)benzene-1,4-diamine]	65 to 72 mg/mL (≈ 357 to 395 mM)	62 mg/mL (≈ 340 mM)	failed to induce marker expression above the recommended % RFI cut-off			slight elevation; also recorded: marginal release	slight elevation; also recorded: marginal release		moderate sensitization
Nc1ccc(N)c(OCOCO)c1 [Compound N8, ((2,5-diaminophenoxy)methoxy)methanol]	78 to 100 mg/mL (≈ 423 to 543 mM)	92 + 3.0 mg/ml	failed to induce marker expression above the recommended % RFI cut-off						
Nc1ccc(N)c(OCCO)c1 [Compound N9, 2-(2,5-diaminophenoxy)ethan-1-ol]	65 to 72 mg/mL (≈ 386 to 428 mM)	72 + 3.4 mg/ml	failed to induce marker expression above the recommended % RFI cut-off						
CC(O)COc1cc(N)ccc1N (stereo not drawn) [Compound N10, 1-(2,5-diaminophenoxy)propan-2-ol]	78 to 100 mg/mL (≈ 428 to 549 mM)	78 + 2.5 mg/ml	did not express the markers at any tested dose level						
CCC(=O)COc1cc(N)ccc1N [Compound N11, 1-(2,5-diaminophenoxy)butan-2-one]	45 mg/mL (≈ 232 mM)		did not express the markers at any tested dose level						moderate sensitizers
C=C(C)Oc1cc(N)ccc1N [Compound N12, 2-(prop-1-en-2-yloxy)benzene-1,4-diamine]	32 mg/mL (≈ 195 mM)		failed to induce marker expression above the recommended % RFI cut-off			slight elevation; also recorded: marginal release	slight elevation; also recorded: marginal release		
CNCCOc1cc(N)ccc1N [Compound N13, 2-(2-(methylamino)ethoxy)benzene-1,4-diamine]	38 mg/mL (≈ 210 mM)					slight elevation; also recorded: marginal release	slight elevation; also recorded: marginal release		moderate sensitizers
